The text below walks through data of patent publication US20050267145A1, “Treatment for lung cancer” (priority 2004, published 2005).

The subject of one assay is pulmonary adenomas. Briefly: Benzo(a)pyrene-induced pulmonary adenomas in A/J mice. The class given is in vivo, mouse. As to conditions: sixteen weeks; for Adenoma counts, groups 1H and 2H compared: high dose 425 μg/kg by inhalation.
For assay [1], the system named is A23187-Stimulated LTB4 in Rat Lung. Briefly: A23187-stimulated LTB4 in rat lung in situ (MDI dosing). The note with it: 20 μg by single MDI activation into excised rat lung, A23187 challenge, LTB4 by RIA. The procedure: For the evaluation of test compounds using metered dose inhalers, dry compounds were dissolved in ethanol to a concentration of 2.33 mg/mL. 2.54 mL of this solution was added to a 20 g glass metered dose inhaler (MDI) vial and fitted with a continuous valve. The vials were cooled on dry ice, filled with 18 g of HFA 134a (DYMEL, E. I. Du Pont de Nemours and Co., Corpus Christi, Tex.), returned to dry ice, and the continuous valve was replaced with an intermittent valve that delivered 25 μL per activation. A single activation of a vial prepared as described delivered 20 μg of compound per activation. For experiments requiring different mass of compound per activation, the initial ethanol solution concentration was adjusted as necessary.
Male Sprague-Dawley rats (Charles River Laboratories, Inc. Wilmington, Mass.) weighing 250-300 grams were anesthetized with methoxyflurane in a closed container, the peritoneal cavity was exposed, and the animals were exsanguinated. The pleural cavity was exposed and the lung was removed with both the trachea and heart attached. The trachea was fitted with a cannula, secured with a ligature, and the distal end of the cannula was extended through a small hole in a #6 rubber stopper allowing for a tight seal. The lung, secured to the cannula and stopper, was then suspended in a 125 mL side arm Erlenmeyer flask filled to 100 mL with PBS warmed to 37° C. As such, access to the airways of the lung could be achieved through the cannula extending through the stopper to the outside of the flask. The flask was then placed in a 37° C. water bath.
An MDI, prepared as described above, containing test compound was fired with a single activation through the cannula and into the airways of the lung. The MDI were made to deliver 20 μg/shot, thus providing a dose of from about 0.06 mg/kg to about 0.08 mg/kg. Control lungs were similarly treated with an MDI containing propellant and co-solvent. The lungs were then incubated for 5 minutes at 37° C. Following this preincubation, 25 μL of 10 mM A23187 (Sigma Chemical Co., St. Louis, Mo.) was fired into the airways and the lung was incubated for an additional 10 minutes. Control lungs again were treated with propellant and co-solvent, only.
The lungs were then lavaged with 5 mL of ice cold PBS containing 1 mM EDTA. The recovered lavage fluid was centrifuged for 10 minutes at 150×g to sediment cells and LTB4 was quantified in the supernatant by specific RIA. The sensitivity of this assay was 155 pg/mL.

In a further assay the target is T1, 5-lipoxygenase (Mus musculus, UniProt P48999).
T1 construct: Resident mouse peritoneal macrophages were obtained from male CD-1 mice; endogenous in cells; host or cells: resident peritoneal macrophages from male CD-1 mice (Charles River Laboratories)
T1 sequence (P48999 1-674): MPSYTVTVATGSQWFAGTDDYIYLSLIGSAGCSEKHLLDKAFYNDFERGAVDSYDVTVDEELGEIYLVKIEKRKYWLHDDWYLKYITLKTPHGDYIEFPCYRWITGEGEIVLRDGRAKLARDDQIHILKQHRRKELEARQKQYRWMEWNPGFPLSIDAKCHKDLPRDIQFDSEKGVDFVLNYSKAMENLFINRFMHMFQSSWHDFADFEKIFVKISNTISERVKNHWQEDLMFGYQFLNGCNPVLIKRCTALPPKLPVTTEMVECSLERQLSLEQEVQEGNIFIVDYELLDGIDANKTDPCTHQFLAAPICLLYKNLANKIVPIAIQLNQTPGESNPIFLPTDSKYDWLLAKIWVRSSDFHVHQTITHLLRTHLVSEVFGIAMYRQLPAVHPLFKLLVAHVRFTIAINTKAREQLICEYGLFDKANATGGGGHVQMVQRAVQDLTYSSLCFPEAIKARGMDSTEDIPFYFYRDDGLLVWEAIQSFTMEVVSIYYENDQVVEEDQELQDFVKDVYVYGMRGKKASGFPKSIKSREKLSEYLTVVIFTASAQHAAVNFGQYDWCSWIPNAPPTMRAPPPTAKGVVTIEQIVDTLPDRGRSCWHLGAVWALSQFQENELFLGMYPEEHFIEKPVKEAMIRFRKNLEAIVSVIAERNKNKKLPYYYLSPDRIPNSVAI
Briefly: Sustained 5-lipoxygenase inhibition in vitro (LTC4 by RIA, mouse peritoneal macrophages, washout). The note with it: 10 μM for 30 minutes, washed, six hours washout, zymosan 50 μg/mL challenge; for inhibition at 10 µM: read-out: Sustained Inhibition, 10 μM Initial. The class given is cell-based. Here is the method: LTC4 was purchased from Biomol International, L.P., Plymouth Meeting, Pa.; ^3H-LTC4 was purchased from PerkinElmer Life and Analytical Sciences, Inc., Boston, Mass.; and antibody to LTC4 was purchased from Advanced Magnetics, Inc., Cambridge, Mass.
The retrieved lavage medium was added to tissue culture dishes and incubated for two hours at 37° C. in a humidified atmosphere containing 5% CO2. Following macrophage enrichment by adherence, the culture medium was removed and the resultant cell layer was washed twice with PBS, the medium (with heparin) was replaced with 1 mL of medium (without heparin), and the cells were then incubated overnight as described above. The following morning the medium was removed and the macrophages were washed twice with 2 mL PBS. One mL of fresh medium, devoid of serum, was then added.
Test compounds were added to the macrophage cultures to achieve a final concentration of 10 μM. The final DMSO concentration was 0.1% in for each test compound. Blank and control cultures were treated with DMSO only. After 30 minutes incubation, the macrophages were washed twice with 2 mL PBS. […] This treatment described in (b) was to allow for a washout period for the test compound.

For assay [2], the system named is MC-26 murine colon carcinoma cells. Briefly: Lung metastatic mouse model (MC-26 colon carcinoma cells i.v.), lung weight. The class given is in vivo. As to conditions: statement on Table 3. Here is the method:
A lung metastatic mouse model was used to determine the anti-tumor activity of a 5-LO inhibitor (zileuton) in combination with an IRM. 12-18 week old CDF1 female mice (Charles River Laboratories, Inc.) weighing 20-22 grams were injected in the tail intravenously with 5×10^5 MC-26 murine colon carcinoma cells. IRM2 was prepared in a 0.03M citrate buffered saline solution, pH 4.0. Zileuton was prepared in a 10% ethanol in water solution. At four hours and 24 hours after tumor challenge, mice were injected intra-peritoneally with zileuton and IRM2 as indicated in Table 3. One group of mice (Vehicle) was untreated. Fourteen days after tumor challenge, mice were sacrificed and lungs were removed and weighed.

Another assay relates to lung tumors. As to conditions: mice, administered orally; cited from earlier work.

Turning to `CCC(CC)N(O)C(=O)Nc1cccc(Oc2ccccc2)c1` [Compound 1, 1-hydroxy-1-(1-ethylpropyl)-3-(3-phenoxyphenyl)urea], the “Adenoma counts, groups 1H and 2H compared” value with pulmonary adenomas is listed as “similar”. Moreover, the “Inhibition, 20 μg in situ” value in assay [1] is reported as 100. Also, the inhibition at 10 µM at 5-lipoxygenase was 100%.
On to `CCCCCN(O)C(=O)Nc1ccc(OCCCC)cc1` [Compound 2, 3-(4-butoxyphenyl)-1-hydroxy-1-pentylurea], for which the “Adenoma counts, groups 1H and 2H compared” value with pulmonary adenomas is given as “similar”.
For the compound `O=C(Nc1ccccc1)N(O)CCCn1cccc1` [Compound 3, 1-hydroxy-1-(3-pyrrol-1-ylpropyl)-3-phenylurea], the “Inhibition, 20 μg in situ” value in assay [1] was found to be 84. The inhibition at 10 µM at 5-lipoxygenase came to 3%.
The like results for `CCCCCN(O)C(=O)Nc1cc(OC)c(OC)c(OC)c1` [Compound 4, 1-hydroxy-1-pentyl-3-(3,4,5-trimethoxyphenyl)urea] were, in that order, 84 and 24%.
In the case of `CCC(CC)N(O)C(=O)Nc1ccc(Cc2ccc(NC(=O)N(O)C(CC)CC)cc2)cc1` [Compound 5], in assay [1], the “Inhibition, 20 μg in situ” value is reported as 66. Besides, the “Sustained Inhibition, 10 μM Initial” value on 5-lipoxygenase came to 86.
As to `CCCCCN(O)C(=O)Nc1ccc(Oc2ccccc2)cc1` [Compound 6, 1-hydroxy-3-(4-phenoxyphenyl)-1-pentylurea], the “Inhibition, 20 μg in situ” value in assay [1] is given as 88. For the same compound, at 5-lipoxygenase, the inhibition at 10 µM came to 100%.
Turning to `CSc1ccc(NC(=O)N(O)C(C)C)cc1` [Compound 7, 1-hydroxy-1-(1-methylethyl)-3-[4-(methylthio)phenyl]urea], the inhibition at 10 µM on 5-lipoxygenase stood at 18%.
In the case of `CCC(CC)N(O)C(=O)Nc1ccccc1` [Compound 8, 1-hydroxy-1-(1-ethylpropyl)-3-phenylurea], in assay [1], the “Inhibition, 20 μg in situ” value turned out to be 72. For the same compound, the inhibition at 10 µM on 5-lipoxygenase stood at 12%.
For `CSc1ccc(NC(=O)N(C)O)cc1` [Compound 9, 1-hydroxy-1-methyl-3-[4-(methylthio)phenyl]urea], at 5-lipoxygenase, the inhibition at 10 µM was found to be 0%.
As to `CC(c1cc2ccccc2s1)N(O)C(N)=O` (stereo not drawn) [Zileuton, zileuton, reference compound], the “effect on the number of pulmonary adenomas” value in the assay on pulmonary adenomas (oral, average 245 mg/kg in the diet) is listed as “did not have any apparent effect”. Moreover, in assay [1], the “Inhibition, 20 μg in situ” value was found to be 42. In addition, the tumor growth entry in assay [2] was “inhibits tumor growth”. Further, at 5-lipoxygenase, the inhibition at 10 µM stood at 28%. The “preventing lung tumors and slowing growth and progression of adenoma to carcinoma” value with lung tumors is listed as “effective”.
